Experiments:
[1] = molecular target: ALK tyrosine kinase receptor (Homo sapiens, UniProt Q9UM73, G1202R); test: Inhibition of ALK G1202R mutant (unknown origin) incubated for 1 hr and measured by mobility shift assay
[2] = molecular target: ALK tyrosine kinase receptor (Homo sapiens, UniProt Q9UM73, L1196M); test: Inhibition of ALK L1196M mutant (unknown origin) incubated for 1 hr and measured by mobility shift assay
[3] = molecular target: ALK tyrosine kinase receptor (Homo sapiens, UniProt Q9UM73); test: Inhibition of ALK (unknown origin) incubated for 1 hr and measured by mobility shift assay
Chain of ALK tyrosine kinase receptor (Homo sapiens, UniProt Q9UM73) (Q9UM73 whole entry): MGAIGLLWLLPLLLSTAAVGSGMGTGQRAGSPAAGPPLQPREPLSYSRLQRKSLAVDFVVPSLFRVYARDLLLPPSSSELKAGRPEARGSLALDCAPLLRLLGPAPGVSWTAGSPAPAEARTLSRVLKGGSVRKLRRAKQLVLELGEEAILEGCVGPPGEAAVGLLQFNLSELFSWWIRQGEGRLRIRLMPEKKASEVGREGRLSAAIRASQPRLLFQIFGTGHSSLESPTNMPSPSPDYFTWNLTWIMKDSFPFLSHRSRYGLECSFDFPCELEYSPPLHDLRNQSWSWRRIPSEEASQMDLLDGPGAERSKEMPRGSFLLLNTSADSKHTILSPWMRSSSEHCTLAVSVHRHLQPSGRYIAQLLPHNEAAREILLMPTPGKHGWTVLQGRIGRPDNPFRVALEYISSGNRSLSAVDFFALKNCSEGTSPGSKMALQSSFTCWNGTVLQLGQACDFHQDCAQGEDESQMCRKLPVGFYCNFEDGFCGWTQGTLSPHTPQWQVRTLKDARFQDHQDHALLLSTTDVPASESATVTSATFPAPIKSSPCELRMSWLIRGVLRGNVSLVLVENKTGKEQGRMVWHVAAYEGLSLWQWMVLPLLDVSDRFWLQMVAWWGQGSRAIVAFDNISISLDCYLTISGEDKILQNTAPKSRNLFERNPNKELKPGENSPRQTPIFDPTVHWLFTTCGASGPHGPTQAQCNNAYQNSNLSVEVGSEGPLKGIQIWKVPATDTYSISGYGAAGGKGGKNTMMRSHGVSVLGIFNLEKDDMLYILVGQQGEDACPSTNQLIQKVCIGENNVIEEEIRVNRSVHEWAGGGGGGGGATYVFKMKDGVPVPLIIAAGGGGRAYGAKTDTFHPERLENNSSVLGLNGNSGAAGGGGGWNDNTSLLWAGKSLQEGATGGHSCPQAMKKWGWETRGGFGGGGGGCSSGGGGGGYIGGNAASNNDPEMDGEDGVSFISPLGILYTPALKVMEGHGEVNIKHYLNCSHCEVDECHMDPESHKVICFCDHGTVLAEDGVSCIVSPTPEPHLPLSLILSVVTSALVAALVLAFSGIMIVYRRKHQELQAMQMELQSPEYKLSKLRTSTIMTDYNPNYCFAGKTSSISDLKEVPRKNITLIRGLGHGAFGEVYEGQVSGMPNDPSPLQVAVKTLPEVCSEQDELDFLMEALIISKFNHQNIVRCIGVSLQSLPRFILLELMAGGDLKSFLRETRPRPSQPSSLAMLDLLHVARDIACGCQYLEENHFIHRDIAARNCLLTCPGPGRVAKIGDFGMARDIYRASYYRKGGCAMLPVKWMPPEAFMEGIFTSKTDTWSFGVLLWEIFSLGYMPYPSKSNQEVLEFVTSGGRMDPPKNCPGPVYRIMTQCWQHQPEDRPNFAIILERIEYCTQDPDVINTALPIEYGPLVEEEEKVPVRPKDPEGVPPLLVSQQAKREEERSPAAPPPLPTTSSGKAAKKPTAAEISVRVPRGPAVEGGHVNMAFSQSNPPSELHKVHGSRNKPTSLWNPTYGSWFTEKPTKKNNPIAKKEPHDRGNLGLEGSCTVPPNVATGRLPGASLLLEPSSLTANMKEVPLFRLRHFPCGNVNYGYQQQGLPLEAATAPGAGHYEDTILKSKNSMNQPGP

A549 = test: cells; details: Homo sapiens, A549, 72 h
Description: Antiproliferative activity against EGFR-positive human A549 cells incubated for 72 hrs and measured by CCK-8 assay

NCI-H2228 [4] = test: cells; details: Homo sapiens, NCI-H2228, 72 h
Description: Antiproliferative activity against EML4-ALK-positive human NCI-H2228 cells incubated for 72 hrs and measured by CCK-8 assay

NCI-H3122 = test: cells; details: Homo sapiens, NCI-H3122, 72 h
Description: Antiproliferative activity against EML4-ALK-positive human NCI-H3122 cells incubated for 72 hrs and measured by CCK-8 assay

KARPAS-299 = test: cells; details: Homo sapiens, KARPAS-299, 72 h
Description: Antiproliferative activity against NPM-ALK-positive human KARPAS-299 cells incubated for 72 hrs and measured by CCK-8 assay

[5] = molecular target: Epidermal growth factor receptor (Homo sapiens, UniProt P00533); test: Inhibition of EGFR (unknown origin) incubated for 1 hr and measured by mobility shift assay
Chain of Epidermal growth factor receptor (P00533 whole entry): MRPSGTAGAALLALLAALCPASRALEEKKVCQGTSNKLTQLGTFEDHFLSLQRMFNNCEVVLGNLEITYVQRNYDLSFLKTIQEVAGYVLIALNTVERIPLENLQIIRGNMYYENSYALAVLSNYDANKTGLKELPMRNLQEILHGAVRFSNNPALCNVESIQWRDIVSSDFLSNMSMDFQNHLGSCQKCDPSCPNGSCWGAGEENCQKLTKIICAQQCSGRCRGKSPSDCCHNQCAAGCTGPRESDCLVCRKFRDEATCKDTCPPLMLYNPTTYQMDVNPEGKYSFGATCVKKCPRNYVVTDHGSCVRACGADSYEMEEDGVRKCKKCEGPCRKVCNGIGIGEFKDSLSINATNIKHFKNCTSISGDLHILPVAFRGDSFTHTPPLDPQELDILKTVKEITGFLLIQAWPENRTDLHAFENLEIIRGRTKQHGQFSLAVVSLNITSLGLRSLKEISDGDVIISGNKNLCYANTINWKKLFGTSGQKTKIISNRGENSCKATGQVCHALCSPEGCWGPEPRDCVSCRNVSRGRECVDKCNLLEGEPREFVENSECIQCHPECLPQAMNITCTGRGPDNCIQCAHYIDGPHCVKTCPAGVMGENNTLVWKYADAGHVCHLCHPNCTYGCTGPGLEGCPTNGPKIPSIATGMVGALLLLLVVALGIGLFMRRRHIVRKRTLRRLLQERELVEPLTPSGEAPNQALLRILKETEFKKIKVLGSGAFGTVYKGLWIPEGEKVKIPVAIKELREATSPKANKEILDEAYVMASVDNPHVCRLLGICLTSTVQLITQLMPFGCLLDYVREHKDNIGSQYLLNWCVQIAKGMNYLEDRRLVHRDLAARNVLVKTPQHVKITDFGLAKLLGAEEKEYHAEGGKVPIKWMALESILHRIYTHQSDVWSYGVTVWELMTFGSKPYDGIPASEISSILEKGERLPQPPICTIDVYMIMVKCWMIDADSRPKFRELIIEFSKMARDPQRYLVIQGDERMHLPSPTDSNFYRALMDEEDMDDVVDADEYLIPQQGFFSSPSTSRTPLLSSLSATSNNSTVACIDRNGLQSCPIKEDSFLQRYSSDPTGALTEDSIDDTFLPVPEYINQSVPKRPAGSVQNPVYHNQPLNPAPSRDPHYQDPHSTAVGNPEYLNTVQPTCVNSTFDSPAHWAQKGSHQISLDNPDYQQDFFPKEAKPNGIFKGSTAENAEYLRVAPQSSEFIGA

MCF7 = test: Antiproliferative activity against human MCF7 cells incubated for 72 hrs and measured by CCK-8 assay; assay type: functional, cell-based; details: MCF7, 72 h
[6] = Cytotoxicity against human HELF cells incubated for 72 hrs and measured by CCK-8 assay; assay type: toxicity, cell-based
PC-3 = test: Antiproliferative activity against human PC-3 cells incubated for 72 hrs and measured by CCK-8 assay; assay type: functional, cell-based; details: PC-3, 72 h
HCT-116 = test: Antiproliferative activity against human HCT-116 cells incubated for 72 hrs and measured by CCK-8 assay; assay type: functional, cell-based; details: HCT-116, 72 h
NCI-H1581 = test: Antiproliferative activity against human NCI-H1581 cells incubated for 72 hrs and measured by CCK-8 assay; assay type: functional, cell-based; details: NCI-H1581, 72 h
NCI-H2228 [7] = test: Induction of apoptosis in EML4-ALK-positive human NCI-H2228 cells assessed as apoptotic rate at 100 nM measured after 48 hrs by annexin V-FITC/propidium iodide staining based flow cytometry (reference value: 6.6%); assay type: functional

Chain of ALK tyrosine kinase receptor (Homo sapiens, UniProt Q9UM73, G1202R) (Q9UM73 19-1620 G1202R limits assumed): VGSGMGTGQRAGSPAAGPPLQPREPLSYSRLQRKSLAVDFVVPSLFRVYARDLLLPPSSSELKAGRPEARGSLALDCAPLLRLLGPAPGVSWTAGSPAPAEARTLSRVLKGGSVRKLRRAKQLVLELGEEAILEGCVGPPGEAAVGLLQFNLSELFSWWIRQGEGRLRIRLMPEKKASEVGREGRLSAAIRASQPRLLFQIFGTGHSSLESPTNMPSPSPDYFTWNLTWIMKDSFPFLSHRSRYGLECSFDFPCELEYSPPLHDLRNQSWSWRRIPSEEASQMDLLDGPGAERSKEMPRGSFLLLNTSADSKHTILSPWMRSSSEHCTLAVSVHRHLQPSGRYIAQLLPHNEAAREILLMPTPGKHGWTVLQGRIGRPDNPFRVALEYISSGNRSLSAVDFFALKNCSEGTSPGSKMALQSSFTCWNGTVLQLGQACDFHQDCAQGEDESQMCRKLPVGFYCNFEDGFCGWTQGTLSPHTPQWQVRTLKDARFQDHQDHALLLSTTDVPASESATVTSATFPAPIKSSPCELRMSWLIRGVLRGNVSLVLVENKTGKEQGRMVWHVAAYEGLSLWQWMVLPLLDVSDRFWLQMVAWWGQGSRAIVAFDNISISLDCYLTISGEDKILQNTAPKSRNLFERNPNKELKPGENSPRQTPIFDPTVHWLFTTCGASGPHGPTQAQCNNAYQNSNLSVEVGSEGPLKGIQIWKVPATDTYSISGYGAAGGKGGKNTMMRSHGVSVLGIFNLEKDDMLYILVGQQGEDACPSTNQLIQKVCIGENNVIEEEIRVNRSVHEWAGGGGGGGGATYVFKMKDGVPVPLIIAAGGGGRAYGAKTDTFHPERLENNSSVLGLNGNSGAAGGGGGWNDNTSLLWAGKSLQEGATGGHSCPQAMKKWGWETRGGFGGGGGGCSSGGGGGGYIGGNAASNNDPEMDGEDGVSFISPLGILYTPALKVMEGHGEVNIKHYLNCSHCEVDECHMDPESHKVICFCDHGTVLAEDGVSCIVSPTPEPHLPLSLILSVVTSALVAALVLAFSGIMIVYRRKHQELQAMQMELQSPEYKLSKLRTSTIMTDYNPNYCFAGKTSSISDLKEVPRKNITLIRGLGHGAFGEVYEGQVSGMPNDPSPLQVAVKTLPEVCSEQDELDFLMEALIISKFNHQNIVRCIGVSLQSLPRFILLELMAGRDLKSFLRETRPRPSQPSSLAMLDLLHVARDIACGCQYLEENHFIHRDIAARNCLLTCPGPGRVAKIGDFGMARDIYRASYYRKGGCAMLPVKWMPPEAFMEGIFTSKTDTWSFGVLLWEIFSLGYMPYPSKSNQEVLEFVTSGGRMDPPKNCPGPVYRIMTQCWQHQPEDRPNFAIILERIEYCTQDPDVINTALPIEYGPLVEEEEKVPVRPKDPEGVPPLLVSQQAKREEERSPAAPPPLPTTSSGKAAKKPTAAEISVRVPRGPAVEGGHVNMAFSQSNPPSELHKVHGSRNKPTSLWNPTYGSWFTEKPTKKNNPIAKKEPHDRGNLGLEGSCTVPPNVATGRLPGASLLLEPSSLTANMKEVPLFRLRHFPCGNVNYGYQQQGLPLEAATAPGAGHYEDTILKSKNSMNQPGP
Chain of ALK tyrosine kinase receptor (Homo sapiens, UniProt Q9UM73, L1196M) (Q9UM73 19-1620 L1196M limits assumed): as the sequence (Q9UM73 19-1620 G1202R limits assumed) above, with L1178M, R1184G counted along it

Row | IC50 (A549) [nM] | IC50 (NCI-H2228 [4]) [nM] | IC50 (NCI-H3122) [nM] | IC50 (KARPAS-299) [nM] | SMILES | further results
1 | 2230 | 112 | 97 | 23 | CNC(=O)c1ccccc1Nc1nc(Nc2ccc3c(NC(=O)CN4CCOCC4)n[nH]c3c2)ncc1Cl | –
2 | 2030 | 569 | 187 | 63 | CNC(=O)c1ccccc1Nc1nc(Nc2ccc3c(NC(=O)CN4CCC(=O)CC4)n[nH]c3c2)ncc1Cl | –
3 | 4810 | 113 | 71 | 29 | CNC(=O)c1ccccc1Nc1nc(Nc2ccc3c(NC(=O)CN4CCC(C)CC4)n[nH]c3c2)ncc1Cl | –
4 | 4470 | 242 | 162 | 21 | CCN1CCN(CC(=O)Nc2n[nH]c3cc(Nc4ncc(Cl)c(Nc5ccccc5C(=O)NC)n4)ccc23)CC1 | –
5 | 1220 | 322 | 137 | 76 | CNC(=O)c1ccccc1Nc1nc(Nc2ccc3c(NC(=O)CN4CCSCC4)n[nH]c3c2)ncc1Cl | –
6 | 2000 | 362 | 151 | 59 | CNC(=O)c1ccccc1Nc1nc(Nc2ccc3c(NC(=O)CN4CCC(O)CC4)n[nH]c3c2)ncc1Cl | –
7 | 7210 | 204 | 107 | 31 | CNC(=O)c1ccccc1Nc1nc(Nc2ccc3c(NC(=O)CN4CCCCC4)n[nH]c3c2)ncc1Cl | –
8 | 13600 | 412 | 175 | 53 | CNC(=O)c1ccccc1Nc1nc(Nc2ccc3c(NC(=O)CN4CCN(CCO)CC4)n[nH]c3c2)ncc1Cl | –

Continued, compound first:

Row | SMILES | IC50 (A549) [nM] | IC50 (NCI-H2228 [4]) [nM] | IC50 (NCI-H3122) [nM] | IC50 (KARPAS-299) [nM] | further results
9 | CC(C)S(=O)(=O)c1ccccc1Nc1nc(Nc2ccc3c(NC(=O)CN(C)C)n[nH]c3c2)ncc1Cl | – | – | – | – | IC50 [1]: 3.8 nM; IC50 [2]: 4.8 nM; IC50 [3]: 2.5 nM
10 | CC(C)S(=O)(=O)c1ccccc1Nc1nc(Nc2ccc3c(NC(=O)CN4CCN(CCO)CC4)n[nH]c3c2)ncc1Cl | 7260 | 250 | 157 | 46 | –
11 | CCN(CC)CC(=O)Nc1n[nH]c2cc(Nc3ncc(Cl)c(Nc4ccccc4S(=O)(=O)C(C)C)n3)ccc12 | 2560 | 45 | 57 | 21 | IC50 [1]: 1.8 nM; IC50 [2]: 3.8 nM; IC50 [3]: 3.3 nM; IC50 [5]: > 1000 nM
12 | CN(C)CC(=O)Nc1n[nH]c2cc(Nc3ncc(Cl)c(Nc4ccccc4NS(=O)(=O)C4CC4)n3)ccc12 | 1850 | 781 | 1530 | 169 | –
13 | CC(C)S(=O)(=O)c1ccccc1Nc1nc(Nc2ccc3c(NC(=O)CN4CCN(C)CC4)n[nH]c3c2)ncc1Cl | 3580 | 520 | 89 | 34 | –
14 | CC(C)S(=O)(=O)c1ccccc1Nc1nc(Nc2ccc3c(NC(=O)CN4CCCCC4)n[nH]c3c2)ncc1Cl | 3260 | 133 | 83 | 19 | –
15 | CCN(CC)CC(=O)Nc1n[nH]c2cc(Nc3ncc(Cl)c(Nc4ccccc4C(=O)NC)n3)ccc12 | 2350 | 62 | 85 | 17 | –
16 | CN(C)CC(=O)Nc1n[nH]c2cc(Nc3ncc(Cl)c(Nc4ccccc4NC(=O)C(Cl)(Cl)Cl)n3)ccc12 | 5780 | 1450 | 2960 | 1270 | –
17 | CN(C)CC(=O)Nc1n[nH]c2cc(Nc3ncc(Cl)c(Nc4ccccc4NS(C)(=O)=O)n3)ccc12 | 3440 | 339 | 245 | 132 | –
18 | C/C=C/C(=O)Nc1ccccc1Nc1nc(Nc2ccc3c(NC(=O)CN(C)C)n[nH]c3c2)ncc1Cl | 5910 | 2980 | 3690 | 1250 | –
19 | CN(C)CC(=O)Nc1n[nH]c2cc(Nc3ncc(Cl)c(Nc4ccccc4NC(=O)C(C)(C)C)n3)ccc12 | 1690 | 912 | 1570 | 718 | –
20 | CC(C)S(=O)(=O)c1ccccc1Nc1nc(Nc2ccc3c(NC(=O)CN4CCOCC4)n[nH]c3c2)ncc1Cl | 2390 | 124 | 73 | 22 | –
21 | C=CC(=O)Nc1ccccc1Nc1nc(Nc2ccc3c(NC(=O)CN(C)C)n[nH]c3c2)ncc1Cl | 4490 | 1820 | 3490 | 899 | –
22 | CC1CCN(CC(=O)Nc2n[nH]c3cc(Nc4ncc(Cl)c(Nc5ccccc5S(=O)(=O)C(C)C)n4)ccc23)CC1 | 1470 | 104 | 65 | 16 | –
23 | CN(C)CC(=O)Nc1n[nH]c2cc(Nc3ncc(Cl)c(Nc4ccccc4NC(=O)C4CC4)n3)ccc12 | 1320 | 823 | 836 | 558 | –
24 | CC(=O)Nc1ccccc1Nc1nc(Nc2ccc3c(NC(=O)CN(C)C)n[nH]c3c2)ncc1Cl | 1670 | 770 | 74 | 359 | –
25 | CC(C)S(=O)(=O)c1ccccc1Nc1nc(Nc2ccc3c(NC(=O)CN4CCSCC4)n[nH]c3c2)ncc1Cl | 1180 | 126 | 124 | 36 | –
26 | CC(C)S(=O)(=O)c1ccccc1Nc1nc(Nc2ccc3c(NC(=O)CN4CCC(O)CC4)n[nH]c3c2)ncc1Cl | 1840 | 170 | 129 | 41 | –
27 | CCN1CCN(CC(=O)Nc2n[nH]c3cc(Nc4ncc(Cl)c(Nc5ccccc5S(=O)(=O)C(C)C)n4)ccc23)CC1 | 3970 | 140 | 84 | 26 | –
28 | Cc1cc(Nc2ncc(Cl)c(Nc3ccccc3S(=O)(=O)C(C)C)n2)c(OC(C)C)cc1C1CCNCC1 [CERITINIB] | 2770 | 66 | 43 | 24 | IC50 (MCF7): 1870 nM; IC50 at 72 h [6]: > 20000 nM; IC50 (PC-3): 1020 nM; IC50 (HCT-116): 1930 nM; IC50 (NCI-H1581): 2310 nM; Activity (NCI-H2228 [7]): 12.32%
29 | CNC(=O)c1ccccc1Nc1nc(Nc2ccc3c(NC(=O)CN(C)C)n[nH]c3c2)ncc1Cl | 2190 | 51 | 21 | 12 | IC50 [1]: 2.5 nM; IC50 [2]: 6.6 nM; IC50 [3]: 3.7 nM; IC50 [5]: > 1000 nM
30 | CNC(=O)c1ccccc1Nc1nc(Nc2ccc3c(NC(=O)CN4CCCC4)n[nH]c3c2)ncc1Cl | – | – | – | – | IC50 [1]: 2.1 nM; IC50 [2]: 4.4 nM; IC50 [3]: 3.6 nM

Reference: ChEMBL document CHEMBL5108011, “Design, synthesis and antitumor evaluation of ATP dual-mimic 2,4-diarylaminopyrimidine and aminoindazole conjugates as potent anaplastic lymphoma kinase inhibitors” (Eur J Med Chem, 2022)
